For this assay, the system named is Primary Human Subcutaneous Preadipocytes. In kind it is cell-based. Particulars: 2.5 ug/mL. On the procedure: Quantification of adipogenesis is evaluated with AdipoRed™ Adipogenesis Assay Reagent (Lonza). The increase of the accumulation of lipids is determined by measuring the fluorescence signal of Nile Red in primary human Primary Human Subcutaneous Preadipocytes after treatment with exopolysaccharide produced by the strain of Halomonas eurihalina species with deposit number LMG P-28571 obtained in accordance with example 1 in Adipocyte Differentiation Medium. Cells treated with Adipocyte Differentiation Medium alone are used as a basal control. Human preadipocytes (from a donor) (ZENBIO) are seeded (13,000 cells/well, 5 wells per condition) in 96-clear well plates in Preadipocyte Growth Medium (ZENBIO). The cells are incubated for 24 hours at 37° C. in a water-saturated atmosphere of 95% air and 5% CO2. […] In the basal control, preadipocytes are treated with the Adipocyte Differentiation Medium only. As a negative control, preadipocytes are treated with the Adipocyte Differentiation Medium and caffeine. Quantification of the accumulation of lipids is carried out by AdipoRed™ reagent (LONZA) assay. […] The percentage of normalized lipid accumulation compared with the basal control is calculated.

Regarding `Cn1c(=O)c2c(ncn2C)n(C)c1=O` [Caffeine, caffeine], the “% Lipid accumulation vs basal control” value was 87.50%.

For the origin of these results see patent US10413501B2, “Cosmetic composition containing halomonas ferment extract, and use thereof” (LUBRIZOL ADVANCED MATERIALS, INC., priority 2014, dated 2019).
